Test results as given in patent US9062124B2, “GIP-based mixed agonists for treatment of metabolic disorders and obesity” (priority 2008, dated 2015).
Like-named read-outs stand apart in the source and are kept apart here. Where a SMILES comes first, the peptide text is derived from it. Bridges are numbered along the chain shown (N, C = ends). Where no end group is shown, it is not given here. [ ]: non-standard residue; d: D form. The star is where a group is joined. PEG 40 kDa = PEG (40 kDa) covalently attached to Cys; Palmitoyl = CCCCCCCCCCCCCCCC(=O)*; Nle = CCCC[C@H](N)C(=O)O; Aib = CC(C)(N)C(=O)O

Assays:
Type in all cases: cell-based
[1] = target: T1, glucagon receptor (Homo sapiens, UniProt P47871); experiment: cAMP synthesis functional assay (firefly luciferase reporter in HEK293 cells), glucagon receptor
T1 construct: expressed in transfected cells; host or cells: HEK293
T1 sequence (P47871 26-477): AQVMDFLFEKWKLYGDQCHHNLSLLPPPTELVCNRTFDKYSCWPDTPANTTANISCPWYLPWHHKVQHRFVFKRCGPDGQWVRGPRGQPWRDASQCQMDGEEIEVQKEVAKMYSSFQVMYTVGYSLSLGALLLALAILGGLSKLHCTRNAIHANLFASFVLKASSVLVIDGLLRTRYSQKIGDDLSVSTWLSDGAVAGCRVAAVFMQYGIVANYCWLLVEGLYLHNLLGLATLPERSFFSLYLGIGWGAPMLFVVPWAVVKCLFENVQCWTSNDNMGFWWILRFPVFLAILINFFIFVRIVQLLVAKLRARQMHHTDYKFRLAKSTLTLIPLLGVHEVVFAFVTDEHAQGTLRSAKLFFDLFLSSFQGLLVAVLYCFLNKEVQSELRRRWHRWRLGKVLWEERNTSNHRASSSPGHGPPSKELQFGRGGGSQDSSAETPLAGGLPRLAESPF

[2] = target: T2, GIP receptor (Homo sapiens, UniProt P48546); experiment: cAMP synthesis functional assay (firefly luciferase reporter in HEK293 cells), GIP receptor
T2 construct: expressed in transfected cells; host or cells: HEK293
T2 sequence (P48546 22-466): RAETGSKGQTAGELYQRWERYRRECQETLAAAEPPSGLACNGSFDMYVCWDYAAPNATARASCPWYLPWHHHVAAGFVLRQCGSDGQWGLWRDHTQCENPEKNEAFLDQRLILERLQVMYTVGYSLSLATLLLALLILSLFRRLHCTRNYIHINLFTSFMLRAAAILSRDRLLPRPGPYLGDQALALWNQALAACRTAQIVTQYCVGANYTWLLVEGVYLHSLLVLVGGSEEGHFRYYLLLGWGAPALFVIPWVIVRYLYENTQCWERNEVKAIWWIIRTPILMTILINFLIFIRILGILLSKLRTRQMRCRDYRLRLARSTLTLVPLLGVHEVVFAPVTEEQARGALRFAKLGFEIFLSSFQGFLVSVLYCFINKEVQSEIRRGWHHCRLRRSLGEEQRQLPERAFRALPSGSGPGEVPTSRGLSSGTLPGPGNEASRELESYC

[3] = target: T3, GLP-1 receptor (Homo sapiens, UniProt P43220); experiment: cAMP synthesis functional assay (firefly luciferase reporter in HEK293 cells), GLP-1 receptor
T3 construct: expressed in transfected cells; host or cells: HEK293
T3 sequence (P43220 24-463, species assumed): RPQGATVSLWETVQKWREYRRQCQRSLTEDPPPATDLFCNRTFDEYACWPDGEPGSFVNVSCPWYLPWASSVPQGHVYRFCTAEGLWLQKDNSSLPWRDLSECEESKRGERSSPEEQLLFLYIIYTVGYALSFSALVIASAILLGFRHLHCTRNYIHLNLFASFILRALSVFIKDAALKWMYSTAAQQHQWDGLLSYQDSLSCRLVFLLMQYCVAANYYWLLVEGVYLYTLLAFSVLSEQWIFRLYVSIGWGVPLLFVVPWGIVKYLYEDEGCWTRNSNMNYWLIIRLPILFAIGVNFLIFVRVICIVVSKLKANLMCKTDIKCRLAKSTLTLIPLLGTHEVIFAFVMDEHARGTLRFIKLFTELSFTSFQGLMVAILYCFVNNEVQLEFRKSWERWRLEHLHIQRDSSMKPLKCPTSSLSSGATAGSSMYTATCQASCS

[4] = Table 1, relative to the native hormone of the indicated receptor
[5] = relative to the standard (Std.) EC50 of the same run

Compound	Glucagon Receptor relative activity [1, 4]	GIP Receptor relative activity [2, 4]	GLP-1 Receptor relative activity [3, 4]	further results
CCCCCCCCCCCCCCCC(=O)NCCCC[C@H](NC(=O)[C@H](CC(=O)O)NC(=O)[C@H](CO)NC(=O)[C@@H](NC(=O)[C@H](Cc1ccccc1)NC(=O)[C@@H](NC(=O)CNC(=O)[C@H](CCC(=O)O)NC(=O)C(C)(C)NC(=O)[C@@H](N)Cc1ccc(O)cc1)[C@@H](C)O)[C@@H](C)O)C(=O)N[C@@H](CO)C(=O)N[C@H](C(=O)N[C@@H](Cc1ccc(O)cc1)C(=O)N[C@@H](CC(C)C)C(=O)N[C@@H](CC(=O)O)C(=O)N[C@@H](CCCCN)C(=O)N[C@@H](CCC(N)=O)C(=O)N[C@@H](C)C(=O)N[C@@H](C)C(=O)NC(C)(C)C(=O)N[C@@H](CCC(=O)O)C(=O)N[C@@H](Cc1ccccc1)C(=O)N[C@H](C(=O)N[C@@H](CC(N)=O)C(=O)N[C@@H](Cc1c[nH]c2ccccc12)C(=O)N[C@@H](CC(C)C)C(=O)N[C@@H](CC(C)C)C(=O)N[C@@H](C)C(=O)NCC(N)=O)C(C)C)[C@@H](C)CC [mt-283] (H-Y[Aib]EGTFTSDK(Palmitoyl)SIYLDKQAA[Aib]EFVNWLLAG-NH2; N-terminus assumed)				EC50 ([1]; Glucagon Receptor EC50, cAMP luciferase reporter assay as in Example 16): 7.94 nM; Glucagon Receptor relative activity [1, 5]: 0.36%; GIP Receptor relative activity [2, 5]: 83.61%; EC50 ([3]; GLP-1 Receptor EC50, cAMP luciferase reporter assay as in Example 16): 0.0158 nM; GLP-1 Receptor relative activity [3, 5]: 37.34%
CC[C@H](C)[C@H](NC(=O)[C@H](CO)NC(=O)[C@H](Cc1ccc(O)cc1)NC(=O)[C@H](CC(=O)O)NC(=O)[C@H](CO)NC(=O)[C@@H](NC(=O)[C@H](Cc1ccccc1)NC(=O)[C@@H](NC(=O)CNC(=O)[C@H](CCC(N)=O)NC(=O)[C@H](CO)NC(=O)[C@@H](N)Cc1ccc(O)cc1)[C@@H](C)O)[C@@H](C)O)C(=O)N[C@@H](Cc1ccc(O)cc1)C(=O)N[C@@H](CC(C)C)C(=O)N[C@@H](CC(=O)O)C(=O)N[C@@H](CCC(=O)O)C(=O)N[C@@H](CCC(N)=O)C(=O)N[C@@H](C)C(=O)N[C@@H](C)C(=O)N[C@@H](CCCCN)C(=O)N[C@@H](CCC(=O)O)C(=O)N[C@@H](Cc1ccccc1)C(=O)N[C@H](C(=O)N[C@H]1CCC(=O)NCCCC[C@@H](C(=O)NCC(=O)NCC(=O)N2CCC[C@H]2C(=O)N[C@@H](CO)C(=O)N[C@@H](CO)C(=O)NCC(=O)N[C@@H](C)C(=O)N2CCC[C@H]2C(=O)N2CCC[C@H]2C(=O)N2CCC[C@H]2C(=O)N[C@@H](CO)C(N)=O)NC(=O)[C@H](CC(C)C)NC(=O)[C@H](CC(C)C)NC(=O)[C@H](Cc2c[nH]c3ccccc23)NC1=O)C(C)C [mt-157] (H-YSQGTFTSDYSIYLDEQAAKEFVEWLLKGGPSSGAPPPS-NH2; lactam 24-28; N-terminus assumed)	6.92%	4.00%	37.04%	
mt-203: glucagon analog peptide, C-terminal amide (Y[Aib]QGTFTSDYSIYLDEQAAKEFVNWL[Nle]AGGPSSGAPPPSC(PEG 40 kDa)-NH2; lactam 16-20)	1.38%	0.24%	20.71%	EC50 ([1]; read-out: Glucagon Receptor EC50, Table 1): 4.84 nM; EC50 ([2]; read-out: GIP Receptor EC50, Table 1): 12.2 nM; EC50 ([3]; read-out: GLP-1 Receptor EC50, Table 1): 0.14 nM
CC[C@H](C)[C@H](NC(=O)[C@H](Cc1ccccc1)NC(=O)[C@H](CC(=O)O)NC(=O)[C@@H]1CCCCNC(=O)CC[C@H](NC(=O)[C@H](CC(=O)O)NC(=O)[C@H](CC(C)C)NC(=O)[C@H](Cc2ccc(O)cc2)NC(=O)[C@H](CCCCN)NC(=O)[C@H](CO)NC(=O)[C@H](Cc2ccc(O)cc2)NC(=O)[C@H](CC(=O)O)NC(=O)[C@H](CO)NC(=O)[C@@H](NC(=O)[C@H](Cc2ccccc2)NC(=O)[C@@H](NC(=O)CNC(=O)[C@H](CCC(N)=O)NC(=O)[C@H](CO)NC(=O)[C@@H](N)Cc2c[nH]cn2)[C@@H](C)O)[C@@H](C)O)C(=O)N[C@@H]([C@@H](C)CC)C(=O)N[C@@H](Cc2c[nH]cn2)C(=O)N[C@@H](CCC(N)=O)C(=O)N1)C(=O)N[C@@H](C)C(=O)N[C@@H](Cc1c[nH]c2ccccc12)C(=O)N[C@@H](CC(C)C)C(=O)N[C@@H](CCSC)C(=O)N[C@@H](CC(N)=O)C(=O)NCC(=O)NCC(=O)N1CCC[C@H]1C(=O)N[C@@H](CO)C(=O)N[C@@H](CO)C(=O)NCC(=O)N[C@@H](C)C(=O)N1CCC[C@H]1C(=O)N1CCC[C@H]1C(=O)N1CCC[C@H]1C(=O)N[C@@H](CO)C(N)=O [mt-128] (H-HSQGTFTSDYSKYLDEIHQKDFIAWLMNGGPSSGAPPPS-NH2; lactam 16-20; N-terminus assumed)	11.13%	0.42%	33.33%	EC50 ([2]; GIP Receptor EC50, nM, Table 1): 14.6 nM

Further lines, with some results ahead:

Glucagon Receptor relative activity [1, 4]	GIP Receptor relative activity [2, 4]	GLP-1 Receptor relative activity [3, 4]	Compound	further results
185.71%	0.74%	0.16%	CC[C@H](C)[C@H](NC(=O)[C@H](Cc1ccccc1)NC(=O)[C@H](CCC(=O)O)NC(=O)[C@@H]1CCCCNC(=O)CC[C@H](NC(=O)[C@H](CC(=O)O)NC(=O)[C@H](CC(C)C)NC(=O)[C@H](Cc2ccc(O)cc2)NC(=O)[C@H](CCCCN)NC(=O)[C@H](CO)NC(=O)[C@H](Cc2ccc(O)cc2)NC(=O)[C@H](CC(=O)O)NC(=O)[C@H](CO)NC(=O)[C@@H](NC(=O)[C@H](Cc2ccccc2)NC(=O)[C@@H](NC(=O)CNC(=O)[C@H](CCC(N)=O)NC(=O)[C@H](CO)NC(=O)[C@@H](N)Cc2c[nH]cn2)[C@@H](C)O)[C@@H](C)CC)C(=O)N[C@@H]([C@@H](C)CC)C(=O)N[C@@H](Cc2c[nH]cn2)C(=O)N[C@@H](CCC(N)=O)C(=O)N1)C(=O)N[C@@H](C)C(=O)N[C@@H](Cc1c[nH]c2ccccc12)C(=O)N[C@@H](CC(C)C)C(=O)N[C@@H](CCSC)C(=O)N[C@@H](CC(N)=O)C(=O)N[C@H](C(N)=O)[C@@H](C)O [mt-107] (H-HSQGTFISDYSKYLDEIHQKEFIAWLMNT-NH2; lactam 16-20; N-terminus assumed)	EC50 ([1]; Glucagon Receptor EC50, nM, Table 1): 0.07 nM
251.85%	4.73%	30.00%	CC[C@H](C)[C@H](NC(=O)[C@H](CO)NC(=O)[C@H](Cc1ccc(O)cc1)NC(=O)[C@H](CC(=O)O)NC(=O)[C@H](CO)NC(=O)[C@@H](NC(=O)[C@H](Cc1ccccc1)NC(=O)[C@@H](NC(=O)CNC(=O)[C@H](CCC(N)=O)NC(=O)[C@H](CO)NC(=O)[C@@H](N)Cc1ccc(O)cc1)[C@@H](C)O)[C@@H](C)O)C(=O)N[C@@H](Cc1ccc(O)cc1)C(=O)N[C@@H](CC(C)C)C(=O)N[C@@H](CC(=O)O)C(=O)N[C@H]1CCC(=O)NCCCC[C@@H](C(=O)N[C@@H](CCC(=O)O)C(=O)N[C@@H](Cc2ccccc2)C(=O)N[C@H](C(=O)N[C@@H](CC(N)=O)C(=O)N[C@@H](Cc2c[nH]c3ccccc23)C(=O)N[C@@H](CC(C)C)C(=O)N[C@@H](CC(C)C)C(=O)N[C@@H](C)C(=O)NCC(N)=O)C(C)C)NC(=O)[C@H](C)NC(=O)[C@H](C)NC(=O)[C@H](CCC(N)=O)NC1=O [mt-163] (H-YSQGTFTSDYSIYLDEQAAKEFVNWLLAG-NH2; lactam 16-20; N-terminus assumed)	EC50 ([3]; GLP-1 Receptor EC50, nM, Table 1): 0.04 nM
9.06%	19.64%	3.17%	CC[C@H](C)[C@H](NC(=O)[C@H](CO)NC(=O)[C@H](Cc1ccc(O)cc1)NC(=O)[C@H](CC(=O)O)NC(=O)[C@H](CO)NC(=O)[C@@H](NC(=O)[C@H](Cc1ccccc1)NC(=O)[C@@H](NC(=O)CNC(=O)[C@H](CCC(N)=O)NC(=O)[C@H](CO)NC(=O)[C@@H](N)Cc1ccc(O)cc1)[C@@H](C)O)[C@@H](C)O)C(=O)N[C@@H](Cc1ccc(O)cc1)C(=O)N[C@@H](CCSC)C(=O)N[C@@H](CC(=O)O)C(=O)N[C@H]1CCC(=O)NCCCC[C@@H](C(=O)N[C@@H](CC(=O)O)C(=O)N[C@@H](Cc2ccccc2)C(=O)N[C@H](C(=O)N[C@@H](CC(N)=O)C(=O)N[C@@H](Cc2c[nH]c3ccccc23)C(=O)N[C@@H](CC(C)C)C(=O)N[C@@H](CC(C)C)C(=O)N[C@@H](C)C(=O)N[C@@H](CCC(N)=O)C(N)=O)C(C)C)NC(=O)[C@H](CCC(N)=O)NC(=O)[C@H](Cc2c[nH]cn2)NC(=O)[C@H]([C@@H](C)CC)NC1=O [mt-125] (H-YSQGTFTSDYSIYMDEIHQKDFVNWLLAQ-NH2; lactam 16-20; N-terminus assumed)	
76.92%	6.99%	0.78%	CC[C@H](C)[C@@H]1NC(=O)[C@@H](NC(=O)[C@H](CC(=O)O)NC(=O)[C@H](CC(C)C)NC(=O)[C@H](Cc2ccc(O)cc2)NC(=O)[C@H](CCCCN)NC(=O)[C@H](CO)NC(=O)[C@H](Cc2ccc(O)cc2)NC(=O)[C@H](CC(=O)O)NC(=O)[C@H](CO)NC(=O)[C@@H](NC(=O)[C@H](Cc2ccccc2)NC(=O)[C@@H](NC(=O)CNC(=O)[C@H](CCC(N)=O)NC(=O)[C@H](CO)NC(=O)[C@@H](N)Cc2ccc(O)cc2)[C@@H](C)O)[C@@H](C)O)CCC(=O)NCCCC[C@@H](C(=O)N[C@@H](CC(=O)O)C(=O)N[C@@H](Cc2ccccc2)C(=O)N[C@H](C(=O)N[C@@H](CC(N)=O)C(=O)N[C@@H](Cc2c[nH]c3ccccc23)C(=O)N[C@@H](CC(C)C)C(=O)N[C@@H](CC(C)C)C(=O)N[C@@H](C)C(=O)N[C@@H](CCC(N)=O)C(N)=O)C(C)C)NC(=O)[C@H](CCC(N)=O)NC(=O)[C@H](Cc2c[nH]cn2)NC1=O [mt-109] (H-YSQGTFTSDYSKYLDEIHQKDFVNWLLAQ-NH2; lactam 16-20; N-terminus assumed)	
